Results on three compounds are retold here after ChEMBL document CHEMBL6071195, “Oxime Linked Doxorubicin Glycoconjugates Improve the Specific Targeting of Glioblastoma in High-Grade Glioma Therapy” (ACS Med Chem Lett, 2024).

Each structure is given as a SMILES string. Calls of active or inactive are those of the source. No cut-off for these calls is given here.

The test system of data set [1] is T98G. Kind of data set: Cytotoxicity against human T98G cells assessed as reduction in cell viability at 10 uM glucose deprived for 8 hrs followed by compound addition and measured after 24 hrs by MTT assay relative to control. It counts as functional, cell-based. (In general: Formazan colour is commonly taken as a measure of viable cells.)
Data set [2] can be described thus: Drug uptake in human T98G cells assessed as red appearance incubated for 24 hrs by imaging analysis. It is filed as ADME, cell-based.
Data set [3] in a line: Stability of compound at pH 7.4 incubated for 72 hrs by HPLC analysis. It counts as physicochemical. Particulars: buffer, pH 7.4, 72 h.
For data set [4], the system named is A 172. Nature of the data set: Cytotoxicity against human A-172 cells co-cultured with MDCK-II cells transfected with human P-gp assessed as cell viability at 100 uM pretreated for 2 hrs followed by […] cell removal and measured after 48 hrs by MTT assay relative to control. It is filed as functional. Particulars: time 50 hrs, read-out: Activity.
Data set [5] can be described thus: Stability of compound at pH 2 measured after 24 hrs by HPLC analysis. It is filed as physicochemical. Particulars: buffer, pH 2, 24 h.
Data set [6] deals with A 172. Nature of the data set: Cytotoxicity against human A-172 cells assessed as reduction in cell viability at 10 uM glucose deprived for 8 hrs followed by compound addition and measured after 24 to 48 hrs by MTT assay relative to control. It is filed as functional, cell-based. Particulars: time 24-48 hrs.
Data set [7] in a line: Drug uptake in human SVG p12 cells at 10 uM incubated for 8 hrs by DAPI staining based immunofluorescence analysis. It counts as ADME, cell-based. Particulars: svg p12, 8 h.
In data set [8] the test system is DNA. Kind of data set: Binding affinity to DNA (unknown origin) assessed as intercalative binding constant (Ka) by UV-Vis absorption spectra. It is filed as nucleic-acid assay.
Data set [9] is described as follows: Stability of compound at pH 3.5 incubated for 72 hrs by HPLC analysis. It counts as physicochemical. Particulars: buffer, pH 3.5, 72 h.
In data set [10] the test system is A 172. Kind of data set: Induction of apoptosis in human A-172 cells assessed as apoptotic rate at 10 uM incubated for 24 hrs by TUNEL assay relative to control. It is filed as functional.
Data set [11] can be described thus: Drug uptake in human A-172 cells at 10 uM incubated for 8 hrs by DAPI staining based immunofluorescence analysis. It counts as ADME, cell-based. Particulars: a 172, 8 h.
Data set [12] relates to A 172. Nature of the data set: Cytotoxicity against human A-172 cells assessed as reduction in cell viability at 10 uM incubated for 24 to 48 hrs by MTT assay. It is filed as functional, cell-based. Particulars: time 24-48 hrs.
Data set [13] in a line: Cytotoxicity against human T98G cells co-cultured with MDCK-II cells transfected with human P-gp assessed as cell viability at 100 uM pretreated for 2 hrs followed by […] cell removal and measured after 48 hrs by MTT assay relative to control. It counts as functional. Particulars: time 50 hrs, read-out: Activity.
Data set [14] in a line: Stability of compound in T98G GBM cell culture media at pH 6.8 measured after 72 hrs by HPLC analysis. Particulars: pH 6.8, 72 h. It is filed as physicochemical.
In data set [15] the test system is DNA. Kind of data set: Binding affinity to DNA (unknown origin) assessed as Stem-Volmer quenching constant by fluorescence spectral analysis. It is filed as nucleic-acid assay.
In data set [16] the test system is DNA. Kind of data set: Binding affinity to DNA (unknown origin) assessed as intercalation by measuring hypsochromic shift at 100 uM by UV-Vis absorption spectra. It is filed as nucleic-acid assay.
The nature of data set [17]: Stability of compound at pH 2 assessed as drug hydrolysis measured after 72 hrs by HPLC analysis. It counts as physicochemical. Particulars: buffer, read-out: Drug degradation.
A short description of data set [18]: Stability of compound at pH 5.0 incubated for 72 hrs by HPLC analysis. It is filed as physicochemical. Particulars: buffer, pH 5, 72 h.
Data set [19] can be described thus: Drug uptake in human A-172 cells assessed as red appearance incubated for 24 hrs by imaging analysis. Particulars: a 172, 24 h. It counts as ADME, cell-based.
The subject of data set [20] is T98G. Kind of data set: Induction of apoptosis in human T98G cells assessed as apoptotic rate at 10 uM incubated for 24 hrs by TUNEL assay relative to control. It is filed as functional.
Data set [21] has as its system T98G. Nature of the data set: Cytotoxicity against human T98G cells assessed as reduction in cell viability at 10 uM glucose deprived for 8 hrs followed by compound addition and measured after 48 hrs by MTT assay relative to control. It is filed as functional, cell-based.
A short description of data set [22]: Drug uptake in human T98G cells at 10 uM incubated for 8 hrs by DAPI staining based immunofluorescence analysis. It is filed as ADME, cell-based.
The subject of data set [23] is T98G. Kind of data set: Induction of DNA damage in human T98G cells at 10 uM incubated for 24 hrs by TUNEL assay. It is filed as functional, cell-based.
The subject of data set [24] is A 172. Nature of the data set: Induction of DNA damage in human A-172 cells at 10 uM incubated for 24 hrs by TUNEL assay. It is filed as functional, cell-based.
Data set [25] is described as follows: Cytotoxicity against human SVG p12 cells assessed as reduction in cell viability at 10 uM incubated for 24 to 48 hrs by MTT assay. It is filed as toxicity, cell-based. Particulars: svg p12, 10 µM, time 24-48 hrs.
For data set [26], the system named is T98G. Nature of the data set: Cytotoxicity against human T98G cells assessed as cell viability at 10 uM incubated for 24 hrs by MTT assay relative to control. It is filed as functional.
The subject of data set [27] is T98G. Nature of the data set: Cytotoxicity against human T98G cells assessed as reduction in cell viability at 10 uM incubated for 48 hrs by MTT assay. It counts as functional, cell-based.

Take `COc1cccc2c1C(=O)c1c(O)c3c(c(O)c1C2=O)C[C@@](O)(/C(CO)=N\OCC(=O)NC[C@H]1O[C@H](OC)[C@H](O)[C@@H](O)[C@@H]1O)C[C@@H]3O[C@H]1C[C@H](N)[C@H](O)[C@H](C)O1`: the outcome with T98G [1], in the data set on T98G [20], in the data set with T98G [21] and in the data set on T98G [23] was inactive. Further, the Drug uptake result in [2], in data set [7], in data set [11], in data set [19] and in [22] was “Not Active” each time. Moreover, the Stability entry in [3] was “Stable”; in data set [5], “Unstable”; in data set [9], “Stable”; in data set [14] it was “Stable”; in [18], “Stable”. Also, the figures for the viability at 100 µM (with A 172 [4]; in data set [13]) were 129% and 76%, respectively. Besides, the result in the data set on A 172 [6], in the data set on A 172 [12] and in the data set with DNA [16] was Active. Also, the K with DNA [8] is 3.5 10^5/M. In addition, the Activity with A 172 [10] is 32%. Further, the KSV in the data set with DNA [15] was 4.4 10^5/M. The degraded at 72 h in data set [17] was found to be 46%.
As for `COc1cccc2c1C(=O)c1c(O)c3c(c(O)c1C2=O)C[C@@](O)(C(=O)CO)C[C@@H]3O[C@H]1C[C@H](N)[C@H](O)[C@H](C)O1` [DOXORUBICIN], the result in the data set on T98G [1] and in the data set on T98G [26] was inactive. Besides, the viability at 100 µM with A 172 [4] was found to be 94%; in [13], 73%. For the same compound, the result in the data set on A 172 [24], in the data set with A 172 [6], with A 172 [12], in the data set on T98G [21] and with T98G [23] was Active. For the same compound, the Activity entry in data set [25] is on record as “Toxic”; with A 172 [10] it was 102%; in the data set with T98G [20] it was 122%. In addition, the Drug uptake entry in data set [7], in [11] and in data set [22] was “Active” each time. In addition, the K in the data set with DNA [8] was 3.3 10^5/M. In addition, in the data set on DNA [15], the KSV was 3.1 10^5/M.
For `COc1cccc2c1C(=O)c1c(O)c3c(c(O)c1C2=O)C[C@@](O)(/C(CO)=N\OCC(=O)NCc1cn(C[C@H]2O[C@H](OC)[C@H](O)[C@@H](O)[C@@H]2O)nn1)C[C@@H]3O[C@H]1C[C@H](N)[C@H](O)[C@H](C)O1`, the outcome with T98G [1] was inactive. The Drug uptake entry in data set [2], in data set [7], in data set [11], in data set [19] and in data set [22] was “Active” throughout. The Stability result is “Stable” in data set [3]; “Unstable” in data set [5]; “Stable” in [9]; “Stable” in [14]; “Stable” in [18]. The viability at 100 µM in the data set on A 172 [4] worked out at 58%; in [13], 62%. Also, the result in the data set with A 172 [24], in the data set on T98G [27], in the data set with A 172 [6], with A 172 [12], in the data set with DNA [16] and in the data set with T98G [21] was Active. Moreover, the result in the data set on T98G [23] was Active. For the same compound, the Activity result in data set [25] is “Non-Toxic”; with A 172 [10] it was 202%; in the data set on T98G [20] it was 116%. In addition, the K in the data set on DNA [8] was 2.7 10^5/M. The viability at 10 µM in the data set on T98G [26] (read-out: Activity) worked out at 80%. In the data set on DNA [15], the KSV is 3.5 10^5/M. Further, the degraded at 72 h in data set [17] was 49%.
